How the values were obtained:
Experiment in all cases: relative viability (nuclei count vs DMSO), 5 days (fraction); higher = more cells survive
[1] = test system: NCI-H1755
Summary of the method: (§1)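 Values are medians from duplicate plates. Each reflects relative viability, defined as the nuclei count of treated wells over that of vehicle wells. Lung cancer cell lines in 1536-well plates were pin-tool dosed one day after seeding with one drug alone or with a fixed anchor-drug dose plus five library-drug doses (not always all listed) in √10 steps, then fixed, stained and imaged at 4× after 5 days.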

[2] = test system: NCI-H2170
Summary of the method: as §1

[3] = test system: NCI-H1651
Summary of the method: as §1

[4] = test system: SK-MES-1
Summary of the method: as §1

[5] = test system: NCI-H1650
Summary of the method: as §1

[6] = test system: NCI-H1437
Summary of the method: as §1

[7] = test system: BEN
Summary of the method: as §1

[8] = test system: NCI-H1666
Summary of the method: as §1

[9] = test system: NCI-H520
Summary of the method: as §1

[10] = test system: CAL-12T
Summary of the method: as §1

[11] = test system: NCI-H2085
Summary of the method: as §1

[12] = test system: COR-L23
Summary of the method: as §1

[13] = test system: PC-14
Summary of the method: as §1

[14] = test system: NCI-H2087
Summary of the method: as §1

[15] = test system: LU99A
Summary of the method: as §1

[16] = test system: NCI-H1355
Summary of the method: as §1

[17] = test system: NCI-H460
Summary of the method: as §1

[18] = test system: HCC-44
Summary of the method: as §1

[19] = test system: LXF-289
Summary of the method: as §1

[20] = test system: NCI-H1993
Summary of the method: as §1

[21] = test system: NCI-H1792
Summary of the method: as §1

CN1CCN(CCOc2cc(OC3CCOCC3)c3c(Nc4c(Cl)ccc5c4OCO5)ncnc3c2)CC1 [Saracatinib] + CC1(C)CCC(c2ccc(Cl)cc2)=C(CN2CCN(c3ccc(C(=O)NS(=O)(=O)c4ccc(N[C@H](CCN5CCOCC5)CSc5ccccc5)c(S(=O)(=O)C(F)(F)F)c4)cc3)CC2)C1 [Navitoclax] (partner 0.5 µM)
relative viability ([1]; first compound 0.02 µM): 0.981
relative viability ([1]; first compound 0.2 µM): 0.681
relative viability ([1]; first compound 0.6325 µM): 0.874
relative viability ([1]; first compound 2 µM): 0.588
relative viability ([2]; first compound 0.02 µM): 0.57
relative viability ([2]; first compound 0.2 µM): 0.564
relative viability ([2]; first compound 0.6325 µM): 0.609
relative viability ([2]; first compound 2 µM): 0.39
relative viability ([3]; first compound 0.02 µM): 1.06
relative viability ([3]; first compound 0.2 µM): 0.681
relative viability ([3]; first compound 0.6325 µM): 0.998
relative viability ([3]; first compound 2 µM): 1.03
relative viability ([4]; first compound 0.02 µM): 1.24
relative viability ([4]; first compound 0.2 µM): 1.16
relative viability ([4]; first compound 0.6325 µM): 1.21
relative viability ([4]; first compound 2 µM): 0.727
relative viability ([5]; first compound 0.02 µM): 1.17
relative viability ([5]; first compound 0.2 µM): 1.1
relative viability ([5]; first compound 0.6325 µM): 0.983
relative viability ([5]; first compound 2 µM): 0.981
relative viability ([6]; first compound 0.02 µM): 1.11
relative viability ([6]; first compound 0.2 µM): 1.12
relative viability ([6]; first compound 0.6325 µM): 1.11
relative viability ([6]; first compound 2 µM): 1.03
relative viability ([7]; first compound 0.02 µM): 0.0867
relative viability ([7]; first compound 0.2 µM): 0.0774
relative viability ([7]; first compound 0.6325 µM): 0.0714
relative viability ([7]; first compound 2 µM): 0.0584
relative viability ([8]; first compound 0.02 µM): 1.04
relative viability ([8]; first compound 0.2 µM): 0.928
relative viability ([8]; first compound 0.6325 µM): 1.06
relative viability ([8]; first compound 2 µM): 0.667
relative viability ([9]; first compound 0.02 µM): 1.1
relative viability ([9]; first compound 0.2 µM): 0.993
relative viability ([9]; first compound 0.6325 µM): 0.753
relative viability ([9]; first compound 2 µM): 0.583
relative viability ([10]; first compound 0.02 µM): 1.17
relative viability ([10]; first compound 0.2 µM): 1.29
relative viability ([10]; first compound 0.6325 µM): 1.42
relative viability ([10]; first compound 2 µM): 1.27
relative viability ([11]; first compound 0.02 µM): 1.12
relative viability ([11]; first compound 0.2 µM): 1.05
relative viability ([11]; first compound 0.6325 µM): 1.19
relative viability ([11]; first compound 2 µM): 1.07
relative viability ([12]; first compound 0.02 µM): 1.1
relative viability ([12]; first compound 0.2 µM): 0.966
relative viability ([12]; first compound 0.6325 µM): 0.923
relative viability ([12]; first compound 2 µM): 0.933
relative viability ([13]; first compound 0.02 µM): 1.01
relative viability ([13]; first compound 0.2 µM): 1.01
relative viability ([13]; first compound 0.6325 µM): 0.417
relative viability ([13]; first compound 2 µM): 0.198
relative viability ([14]; first compound 0.02 µM): 1.03
relative viability ([14]; first compound 0.2 µM): 1.04
relative viability ([14]; first compound 0.6325 µM): 1.14
relative viability ([14]; first compound 2 µM): 1.05
relative viability ([15]; first compound 0.02 µM): 0.818
relative viability ([15]; first compound 0.2 µM): 0.629
relative viability ([15]; first compound 0.6325 µM): 0.847
relative viability ([15]; first compound 2 µM): 0.865
relative viability ([16]; first compound 0.02 µM): 0.988
relative viability ([16]; first compound 0.2 µM): 0.895
relative viability ([16]; first compound 0.6325 µM): 0.928
relative viability ([16]; first compound 2 µM): 0.901
relative viability ([17]; first compound 0.02 µM): 1.16
relative viability ([17]; first compound 0.2 µM): 0.457
relative viability ([17]; first compound 0.6325 µM): 1.22
relative viability ([17]; first compound 2 µM): 0.813
relative viability ([18]; first compound 0.02 µM): 1.06
relative viability ([18]; first compound 0.2 µM): 0.829
relative viability ([18]; first compound 0.6325 µM): 1.08
relative viability ([18]; first compound 2 µM): 1.04
relative viability ([19]; first compound 0.02 µM): 0.979
relative viability ([19]; first compound 0.2 µM): 0.846
relative viability ([19]; first compound 0.6325 µM): 0.993
relative viability ([19]; first compound 2 µM): 0.964
relative viability ([20]; first compound 0.02 µM): 0.848
relative viability ([20]; first compound 0.2 µM): 0.78
relative viability ([20]; first compound 2 µM): 0.769
relative viability ([21]; first compound 0.02 µM): 0.635
relative viability ([21]; first compound 0.2 µM): 0.489
relative viability ([21]; first compound 0.6325 µM): 0.723
relative viability ([21]; first compound 2 µM): 0.583

CN1CCN(CCOc2cc(OC3CCOCC3)c3c(Nc4c(Cl)ccc5c4OCO5)ncnc3c2)CC1 [Saracatinib] + CC(=O)Nc1cccc(-n2c(=O)n(C3CC3)c(=O)c3c(Nc4ccc(I)cc4F)n(C)c(=O)c(C)c32)c1 [Trametinib] (partner 0.02 µM)
relative viability ([1]; first compound 0.02 µM): 0.724
relative viability ([1]; first compound 0.2 µM): 0.714
relative viability ([1]; first compound 0.6325 µM): 0.75
relative viability ([1]; first compound 2 µM): 0.694
relative viability ([2]; first compound 0.02 µM): 0.917
relative viability ([2]; first compound 0.2 µM): 0.859
relative viability ([2]; first compound 0.6325 µM): 0.916
relative viability ([2]; first compound 2 µM): 0.862
relative viability ([3]; first compound 0.02 µM): 0.837
relative viability ([3]; first compound 0.2 µM): 0.593
relative viability ([3]; first compound 0.6325 µM): 0.907
relative viability ([3]; first compound 2 µM): 0.877
relative viability ([4]; first compound 0.02 µM): 0.548
relative viability ([4]; first compound 0.2 µM): 0.6
relative viability ([4]; first compound 0.6325 µM): 0.347
relative viability ([4]; first compound 2 µM): 0.256
relative viability ([5]; first compound 0.02 µM): 0.528
relative viability ([5]; first compound 0.2 µM): 0.438
relative viability ([5]; first compound 0.6325 µM): 0.505
relative viability ([5]; first compound 2 µM): 0.291
relative viability ([6]; first compound 0.02 µM): 0.652
relative viability ([6]; first compound 0.2 µM): 0.538
relative viability ([6]; first compound 0.6325 µM): 0.733
relative viability ([6]; first compound 2 µM): 0.538
relative viability ([7]; first compound 0.02 µM): 1.04
relative viability ([7]; first compound 0.2 µM): 1.15
relative viability ([7]; first compound 0.6325 µM): 1.17
relative viability ([7]; first compound 2 µM): 1.13
relative viability ([8]; first compound 0.02 µM): 0.829
relative viability ([8]; first compound 0.2 µM): 0.939
relative viability ([8]; first compound 0.6325 µM): 1.06
relative viability ([8]; first compound 2 µM): 0.823
relative viability ([9]; first compound 0.02 µM): 0.703
relative viability ([9]; first compound 0.2 µM): 0.53
relative viability ([9]; first compound 0.6325 µM): 0.586
relative viability ([9]; first compound 2 µM): 0.273
relative viability ([10]; first compound 0.02 µM): 0.394
relative viability ([10]; first compound 0.2 µM): 0.373
relative viability ([10]; first compound 0.6325 µM): 0.475
relative viability ([10]; first compound 2 µM): 0.323
relative viability ([11]; first compound 0.02 µM): 0.482
relative viability ([11]; first compound 0.2 µM): 0.541
relative viability ([11]; first compound 0.6325 µM): 0.497
relative viability ([11]; first compound 2 µM): 0.404
relative viability ([12]; first compound 0.02 µM): 0.58
relative viability ([12]; first compound 0.2 µM): 0.53
relative viability ([12]; first compound 0.6325 µM): 0.574
relative viability ([12]; first compound 2 µM): 0.559
relative viability ([13]; first compound 0.02 µM): 0.605
relative viability ([13]; first compound 0.2 µM): 0.275
relative viability ([13]; first compound 0.6325 µM): 0.0993
relative viability ([13]; first compound 2 µM): 0.0574
relative viability ([14]; first compound 0.02 µM): 0.24
relative viability ([14]; first compound 0.2 µM): 0.142
relative viability ([14]; first compound 0.6325 µM): 0.23
relative viability ([14]; first compound 2 µM): 0.194
relative viability ([15]; first compound 0.02 µM): 0.532
relative viability ([15]; first compound 0.2 µM): 0.473
relative viability ([15]; first compound 0.6325 µM): 0.565
relative viability ([15]; first compound 2 µM): 0.459
relative viability ([16]; first compound 0.02 µM): 0.437
relative viability ([16]; first compound 0.2 µM): 0.456
relative viability ([16]; first compound 0.6325 µM): 0.439
relative viability ([16]; first compound 2 µM): 0.441
relative viability ([17]; first compound 0.02 µM): 0.215
relative viability ([17]; first compound 0.2 µM): 0.139
relative viability ([17]; first compound 0.6325 µM): 0.129
relative viability ([17]; first compound 2 µM): 0.056
relative viability ([18]; first compound 0.02 µM): 1.05
relative viability ([18]; first compound 0.2 µM): 1.02
relative viability ([18]; first compound 0.6325 µM): 1.18
relative viability ([18]; first compound 2 µM): 1.21
relative viability ([19]; first compound 0.02 µM): 0.677
relative viability ([19]; first compound 0.2 µM): 0.644
relative viability ([19]; first compound 0.6325 µM): 0.655
relative viability ([19]; first compound 2 µM): 0.685
relative viability ([20]; first compound 0.02 µM): 0.539
relative viability ([20]; first compound 0.2 µM): 0.518
relative viability ([20]; first compound 0.6325 µM): 0.528
relative viability ([20]; first compound 2 µM): 0.5
relative viability ([21]; first compound 0.02 µM): 0.492
relative viability ([21]; first compound 0.2 µM): 0.355
relative viability ([21]; first compound 0.6325 µM): 0.382
relative viability ([21]; first compound 2 µM): 0.3

— the supplement of paper PMC10307832
